Patent publication US8815860B2, “Methods for preventing oxidative stress injury of a tissue by a Folate-TEMPOL conjugate” (Emory University, priority 2009, dated 2014)

Assays:
[1] = test system: human proximal tubule (HK-2) cells; assay: Superoxide concentration in LPS-treated cultured HK-2 cells measured by DHE-HPLC; type: cell-based; details: LPS treated HK-2 cells, normalized to protein concentration, n=3 (FIG. 1)
Procedure: Superoxide concentration was normalized to protein concentration. Data represent mean and SEM.
Typically, cultured human proximal tubule (HK-2) cells were treated with LPS to induce superoxide free radical formation. The level of superoxide is indicated by the formation of 2-hydroxyethidium as described, for example by Zielonka et al., (2008) Nat. Protocols 3: 8-21, incorporated herein by reference in its entirety.

[2] = test system: C57bl/6J mice, bilateral renal ischemia-reperfusion; assay: 30 minute bilateral renal ischemia-reperfusion in mice; type: in vivo; details: for urinary albumin excretion: 24 hour urine, collected 48 hours following 30 minute bilateral renal ischemia-reperfusion (FIG. 2); for plasma creatinine levels: 48 hours following 30 minute bilateral renal ischemia-reperfusion (FIG. 3); for plasma blood urea nitrogen (BUN): 48 hours following 30 minutes bilateral renal ischemia-reperfusion (FIG. 4); for kidney superoxide (hydrocyanine-3 fluorescence, DHE-HPLC, nitrotyrosine staining): mouse kidney after 30 minutes renal ischemia (FIG. 6)
Procedure: Samples were collected 48 hours following 30 minute bilateral renal ischemia-reperfusion. Data represent mean and SEM.
(§1) Data represent mean and SEM.
BUN was measured 48 hours following 30 minutes bilateral renal ischemia-reperfusion. Data represent mean and SEM.
The effects of the Folate-TEMPOL conjugate of the present disclosure on renal ischemic-reperfusion injury prevention were observed by intravenously administering TEMPOL or Folate-TEMPOL. The renal artery was then clamped for about 30 mins, followed by 48 hours of reperfusion. Parameters measured as indicators of renal tubule injury included creatinine, BUN, and albumin levels both before and after ischemia. Also measured were the TEMPOL and Folate-TEMPOL concentrations in the plasma and the kidney.

[3] = test system: human proximal tubule (HK-2) cells; assay: Uptake into HK-2 cells quantified by electron spin resonance (ESR); type: cell-based; details: after incubation with HK-2 cells, ESR (FIG. 5D, 5E)
[4] = Tissue concentration quantified by ESR in mice after 48 hour intravenous infusion; type: in vivo; details: kidney, ESR (FIG. 5F)
Source text: as §1

[5] = listed as Folate-TEMPOL conjugate

SMILES: CC1(C)CC(O)CC(C)(C)N1[O] [Tempol, 4-hydroxy-2,2,6,6-tetramethylpiperidine 1-oxyl]
- superoxide concentration in cultured HK-2 cells [1]: effectively scavenged superoxide production

SMILES: CC1(C)CC(NC(=O)CCC(NC(=O)c2ccc(NCc3cnc4nc(N)nc(O)c4n3)cc2)C(=O)O)CC(C)(C)N1[O] (stereo not drawn) [tempol-folate]
- superoxide concentration in cultured HK-2 cells [1]: effectively scavenged superoxide production
- superoxide concentration in cultured HK-2 cells ([1]; listed as Folate-TEMPOL): inhibits superoxide as efficiently as TEMPOL alone
- urinary albumin excretion [2]: prevents kidney injury more effectively than free tempol
- urinary albumin excretion [2, 5]: the reduction was greater than if TEMPOL alone was used
- plasma creatinine levels [2]: preserves glomerular filtration rate from ischemia-reperfusion more effectively than unconjugated tempol
- plasma creatinine levels [2, 5]: the reduction was greater than if TEMPOL alone was used
- plasma blood urea nitrogen (BUN) [2]: proximal tubule function is protected from ischemic injury by tempol-folate compared with free tempol
- plasma blood urea nitrogen (BUN) [2, 5]: the reduction was greater than if TEMPOL alone was used
- renal structure, hematoxylin and eosin (H&E) staining of kidney sections ([2]; kidney sections harvested 48 hours post-ischemia (FIG. 7)): renal structure is protected from renal ischemia-reperfusion injury by tempol-folate treatment more efficiently than by ternpol treatment
- kidney superoxide (hydrocyanine-3 fluorescence, DHE-HPLC, nitrotyrosine staining) [2]: more effective at scavenging superoxide in the kidney
- kidney superoxide (hydrocyanine-3 fluorescence, DHE-HPLC, nitrotyrosine staining) [2, 5]: significantly reduced
- HK-2 cell concentration of tempol and tempol-folate [3]: becomes more concentrated in cultured proximal tubule cells
- HK-2 cell concentration of tempol and tempol-folate ([3]; listed as Folate-TEMPOL): accumulates in cultured proximal tubule cells to a greater extent than un-conjugated Tempol
- tissue tempol and tempol-folate concentration [4]: becomes more concentrated in cultured proximal tubule cells and in vivo in kidneys of mice compared with tempol
